# Legend:
# Type in all cases: in vivo
# [1] = system: barnyardgrass (Echinochloa crus-galli); assay: Test G Post-Emergence Protocol; settings: Echinochloa crus-galli, post-emergence, 312 h, read-out: Barnyardgrass damage rating; for pest or weed control at 15.625 g/ha: 15.625 g ai/ha, evaluated after 13 days (100=total damage to plant; 0=no damage to plant); for pest or weed control at 62.5 g/ha: 62.5 g ai/ha; for pest or weed control at 62.5 g/ha / pest or weed control at 250 g/ha: evaluated after 13 days, 100=total damage to plant, 0=no damage to plant; for pest or weed control at 250 g/ha: 250 g ai/ha
# Method in brief: (§1)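 Sow in soil; grow 8 d (24/16 °C, 14 h light, 65% humidity); spray 15.625/62.5/250 g/ha in acetone:water 50:50 + 0.5% Tween 20; grow on, water twice daily; score damage 0–100 at 13 d.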
# [2] = system: velvetleaf (Abutilon theophrasti); assay: Test G Post-Emergence Protocol; settings: Abutilon theophrasti, post-emergence, 312 h, read-out: Velvetleaf damage rating; for pest or weed control at 15.625 g/ha: 15.625 g ai/ha, evaluated after 13 days (100=total damage to plant; 0=no damage to plant); for pest or weed control at 62.5 g/ha: 62.5 g ai/ha; for pest or weed control at 62.5 g/ha / pest or weed control at 250 g/ha: evaluated after 13 days, 100=total damage to plant, 0=no damage to plant; for pest or weed control at 250 g/ha: 250 g ai/ha
# Method in brief: as §1
# [3] = system: redroot pigweed (Amaranthus retroflexus); assay: Test G Post-Emergence Protocol; settings: Amaranthus retroflexus, post-emergence, 312 h, read-out: Pigweed, Redroot damage rating; for pest or weed control at 15.625 g/ha: 15.625 g ai/ha, evaluated after 13 days (100=total damage to plant; 0=no damage to plant); for pest or weed control at 62.5 g/ha: 62.5 g ai/ha; for pest or weed control at 62.5 g/ha / pest or weed control at 250 g/ha: evaluated after 13 days, 100=total damage to plant, 0=no damage to plant; for pest or weed control at 250 g/ha: 250 g ai/ha
# Method in brief: as §1
# [4] = system: giant foxtail (Setaria faberi); assay: Test G Post-Emergence Protocol; settings: Setaria faberi, post-emergence, 312 h, read-out: Foxtail, Giant damage rating; for pest or weed control at 15.625 g/ha: 15.625 g ai/ha, evaluated after 13 days (100=total damage to plant; 0=no damage to plant); for pest or weed control at 62.5 g/ha: 62.5 g ai/ha; for pest or weed control at 62.5 g/ha / pest or weed control at 250 g/ha: evaluated after 13 days, 100=total damage to plant, 0=no damage to plant; for pest or weed control at 250 g/ha: 250 g ai/ha
# Method in brief: as §1
# [5] = system: ivy-leaved morning glory (Ipomoea hederacea); assay: Test G Post-Emergence Protocol; settings: Ipomoea, post-emergence, 312 h, read-out: Morningglory, Ivy-leaved damage rating; for pest or weed control at 15.625 g/ha: 15.625 g ai/ha, evaluated after 13 days (100=total damage to plant; 0=no damage to plant); for pest or weed control at 62.5 g/ha: 62.5 g ai/ha; for pest or weed control at 62.5 g/ha / pest or weed control at 250 g/ha: evaluated after 13 days, 100=total damage to plant, 0=no damage to plant; for pest or weed control at 250 g/ha: 250 g ai/ha
# Method in brief: as §1
# corn (Zea mays) [6] = assay: Test G Post-Emergence Protocol; settings: Zea mays, post-emergence, 312 h, read-out: Corn damage rating; for plant injury at 15.625 g/ha: 15.625 g ai/ha, evaluated after 13 days (100=total damage to plant; 0=no damage to plant); for plant injury at 62.5 g/ha: 62.5 g ai/ha; for plant injury at 62.5 g/ha / plant injury at 250 g/ha: evaluated after 13 days, 100=total damage to plant, 0=no damage to plant; for plant injury at 250 g/ha: 250 g ai/ha
# Method in brief: as §1
# [7] = system: barnyardgrass (Echinochloa crus-galli); assay: Test G Pre-Emergence Protocol; settings: Echinochloa crus-galli, pre-emergence, 312 h, evaluated after 13 days; for pest or weed control at 15.625 g/ha: 15.625 g ai/ha; for pest or weed control at 15.625 g/ha / pest or weed control at 250 g/ha: read-out: Barnyardgrass damage rating (100=total damage to plant; 0=no damage to plant); for pest or weed control at 62.5 g/ha: 62.5 g ai/ha, 100=total damage to plant, 0=no damage to plant, read-out: Barnyardgrass damage rating; for pest or weed control at 250 g/ha: 250 g ai/ha
# Method in brief: (§2)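 Test compound in 0.5% Tween 20 acetone/water (50:50) was applied at three rates (15.625, 62.5, 250 g/ha) to soil sown one day earlier. After 13 days plants were scored for injury, where 0 means unaffected and 100 means completely damaged.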
# [8] = system: velvetleaf (Abutilon theophrasti); assay: Test G Pre-Emergence Protocol; settings: Abutilon theophrasti, pre-emergence, 312 h, evaluated after 13 days; for pest or weed control at 15.625 g/ha: 15.625 g ai/ha; for pest or weed control at 15.625 g/ha / pest or weed control at 250 g/ha: read-out: Velvetleaf damage rating (100=total damage to plant; 0=no damage to plant); for pest or weed control at 62.5 g/ha: 62.5 g ai/ha, 100=total damage to plant, 0=no damage to plant, read-out: Velvetleaf damage rating; for pest or weed control at 250 g/ha: 250 g ai/ha
# Method in brief: as §2
# [9] = system: redroot pigweed (Amaranthus retroflexus); assay: Test G Pre-Emergence Protocol; settings: Amaranthus retroflexus, pre-emergence, 312 h, evaluated after 13 days; for pest or weed control at 15.625 g/ha: 15.625 g ai/ha; for pest or weed control at 15.625 g/ha / pest or weed control at 250 g/ha: read-out: Pigweed, Redroot damage rating (100=total damage to plant; 0=no damage to plant); for pest or weed control at 62.5 g/ha: 62.5 g ai/ha, 100=total damage to plant, 0=no damage to plant, read-out: Pigweed, Redroot damage rating; for pest or weed control at 250 g/ha: 250 g ai/ha
# Method in brief: as §2
# [10] = system: giant foxtail (Setaria faberi); assay: Test G Pre-Emergence Protocol; settings: Setaria faberi, pre-emergence, 312 h, evaluated after 13 days; for pest or weed control at 15.625 g/ha: 15.625 g ai/ha; for pest or weed control at 15.625 g/ha / pest or weed control at 250 g/ha: read-out: Foxtail, Giant damage rating (100=total damage to plant; 0=no damage to plant); for pest or weed control at 62.5 g/ha: 62.5 g ai/ha, 100=total damage to plant, 0=no damage to plant, read-out: Foxtail, Giant damage rating; for pest or weed control at 250 g/ha: 250 g ai/ha
# Method in brief: as §2
# [11] = system: ivy-leaved morning glory (Ipomoea hederacea); assay: Test G Pre-Emergence Protocol; settings: Ipomoea, pre-emergence, 312 h, evaluated after 13 days; for pest or weed control at 15.625 g/ha: 15.625 g ai/ha; for pest or weed control at 15.625 g/ha / pest or weed control at 250 g/ha: read-out: Morningglory, Ivy-leaved damage rating (100=total damage to plant; 0=no damage to plant); for pest or weed control at 62.5 g/ha: 62.5 g ai/ha, 100=total damage to plant, 0=no damage to plant, read-out: Morningglory, Ivy-leaved damage rating; for pest or weed control at 250 g/ha: 250 g ai/ha
# Method in brief: as §2
# corn (Zea mays) [12] = assay: Test G Pre-Emergence Protocol; settings: Zea mays, pre-emergence, 312 h, evaluated after 13 days; for plant injury at 15.625 g/ha: 15.625 g ai/ha; for plant injury at 15.625 g/ha / plant injury at 250 g/ha: read-out: Corn damage rating (100=total damage to plant; 0=no damage to plant); for plant injury at 62.5 g/ha: 62.5 g ai/ha, 100=total damage to plant, 0=no damage to plant, read-out: Corn damage rating; for plant injury at 250 g/ha: 250 g ai/ha
# Method in brief: as §2
Structure (SMILES),pest or weed control at 15.625 g/ha [1] [%],pest or weed control at 62.5 g/ha [1] [%],pest or weed control at 250 g/ha [1] [%],pest or weed control at 15.625 g/ha [2] [%],pest or weed control at 62.5 g/ha [2] [%],pest or weed control at 250 g/ha [2] [%],pest or weed control at 15.625 g/ha [3] [%],pest or weed control at 62.5 g/ha [3] [%],pest or weed control at 250 g/ha [3] [%],pest or weed control at 15.625 g/ha [4] [%],pest or weed control at 62.5 g/ha [4] [%],pest or weed control at 250 g/ha [4] [%],pest or weed control at 15.625 g/ha [5] [%],pest or weed control at 62.5 g/ha [5] [%],pest or weed control at 250 g/ha [5] [%],plant injury at 15.625 g/ha (corn (Zea mays) [6]) [%],plant injury at 62.5 g/ha (corn (Zea mays) [6]) [%],plant injury at 250 g/ha (corn (Zea mays) [6]) [%],pest or weed control at 15.625 g/ha [7] [%],pest or weed control at 62.5 g/ha [7] [%],also measured
CN1C[C@@H](c2ccc(C(F)(F)F)cc2)[C@H](C(=O)Nc2cnc(Cl)cn2)C1=O (racemic) [Compound 1649],0,0,20,0,0,0,0,0,40,0,0,60,0,0,0,0,0,0,0,0,pest or weed control at 250 g/ha [7]: 0%; pest or weed control at 15.625 g/ha [8]: 0%; pest or weed control at 62.5 g/ha [8]: 0%; pest or weed control at 250 g/ha [8]: 0%; pest or weed control at 15.625 g/ha [9]: 0%; pest or weed control at 62.5 g/ha [9]: 20%; pest or weed control at 250 g/ha [9]: 20%; pest or weed control at 15.625 g/ha [10]: 0%; pest or weed control at 62.5 g/ha [10]: 10%; pest or weed control at 250 g/ha [10]: 20%; pest or weed control at 15.625 g/ha [11]: 0%; pest or weed control at 62.5 g/ha [11]: 0%; pest or weed control at 250 g/ha [11]: 0%; plant injury at 15.625 g/ha (corn (Zea mays) [12]): 0%; plant injury at 62.5 g/ha (corn (Zea mays) [12]): 0%; plant injury at 250 g/ha (corn (Zea mays) [12]): 0%
Cc1c(F)ccc(NC(=O)[C@@H]2C(=O)N(C)C[C@H]2c2ccc(C(F)(F)F)cc2)c1Cl (racemic) [Compound 1651],0,30,10,0,0,10,0,0,0,0,70,90,0,10,10,0,0,0,0,0,pest or weed control at 250 g/ha [7]: 20%; pest or weed control at 15.625 g/ha [8]: 0%; pest or weed control at 62.5 g/ha [8]: 0%; pest or weed control at 250 g/ha [8]: 10%; pest or weed control at 15.625 g/ha [9]: 0%; pest or weed control at 62.5 g/ha [9]: 10%; pest or weed control at 250 g/ha [9]: 20%; pest or weed control at 15.625 g/ha [10]: 0%; pest or weed control at 62.5 g/ha [10]: 20%; pest or weed control at 250 g/ha [10]: 80%; pest or weed control at 15.625 g/ha [11]: 0%; pest or weed control at 62.5 g/ha [11]: 0%; pest or weed control at 250 g/ha [11]: 0%; plant injury at 15.625 g/ha (corn (Zea mays) [12]): 0%; plant injury at 62.5 g/ha (corn (Zea mays) [12]): 0%; plant injury at 250 g/ha (corn (Zea mays) [12]): 0%
Cc1nc(F)ccc1NC(=O)[C@@H]1C(=O)N(C)C[C@H]1c1ccc(C(F)(F)F)cc1 (racemic) [Compound 1654],0,20,60,0,20,40,10,20,30,20,40,80,10,20,30,0,0,20,0,0,pest or weed control at 250 g/ha [7]: 80%; pest or weed control at 15.625 g/ha [8]: 0%; pest or weed control at 62.5 g/ha [8]: 0%; pest or weed control at 250 g/ha [8]: 10%; pest or weed control at 15.625 g/ha [9]: 0%; pest or weed control at 62.5 g/ha [9]: 0%; pest or weed control at 250 g/ha [9]: 0%; pest or weed control at 15.625 g/ha [10]: 20%; pest or weed control at 62.5 g/ha [10]: 60%; pest or weed control at 250 g/ha [10]: 90%; pest or weed control at 15.625 g/ha [11]: 0%; pest or weed control at 62.5 g/ha [11]: 0%; plant injury at 15.625 g/ha (corn (Zea mays) [12]): 0%; plant injury at 62.5 g/ha (corn (Zea mays) [12]): 0%; plant injury at 250 g/ha (corn (Zea mays) [12]): 20%
